One test concerns pregnant rats. The experiment in a line: Antenatal treatment of pregnant rats: weight of maternal and fetal lungs. The format is in vivo, rat. The following applies: delivery at d18; for Weight fetal lung (g)/g fetus / Average weight fetal lungs: antenatal treatment 48 h; for Average weight fetal lungs: n = 9; for increase of average fetal lung weight in relation to body weight: i.p. at d16 of gestation and 24 h later, leptin 1 mg/kg, dexamethasone 6 mg/kg, vs control. As for the experimental part:
Leptin (1 mg/kg body weight) was administered to pregnant rats at d16 of gestation and 24 h later by intraperitoneal injection. Dexamethasone at 6 mg per kg body weight was administered at similar time intervals as leptin. In addition, the effect of a combination of leptin and dexamethasone treatment was tested. After 48 h of leptin, dexamethasone or leptin/dexamethasone exposure, premature delivery of the rat pups was induced at d18, which is similar to 30 weeks of gestation in the human. The fetuses from each litter were pooled and weighed, and various tissues from both the rat fetuses and mothers were also dissected and weighed. […] Antenatal treatment with dexamethasone increased fetal lung weight by 41%.

The test system of another test is cornea from normal rats. Conditions: but not fa/fa Zucker rats, Sierra-Honigmann et al.; cited from earlier work.
Test [1] relates to isolated type II alveolar cells. As to the kind of experiment: RT-PCR of surfactant and GAPDH mRNA in cultured isolated fetal type II alveolar cells. The format is cell-based, rat. Conditions: 1 ng/ml leptin, 24 h, d19 type II cells. As for the experimental part: FIG. 5 depicts RT-PCR analysis of surfactant and GADPH (glyceraldehyde phosphate dehydrogenase) mRNA expression in cultured isolated type II alveolar cells. Cells were exposed to either 1 ng/ml leptin (1 L) or 10 ng/ml leptin (10 L). Control cells were not exposed to leptin.
To determine if the leptin effect on surfactant production was due to a direct effect of leptin on the type II alveolar cell, we determined whether the effects of leptin could be reproduced in isolated type II alveolar cells in culture. Alveolar type II cells were obtained from the lungs of 19-d gestation fetal rats by the method described by Bhandari et al., (Pediatr. Res. 41:166-71, 1997). In brief, lungs of 19-day gestation fetal rats were removed, dissected free of connective tissue and nonparenchymal pulmonary tissue, and cultured as explants for 40-48 h in serum free Waymouth MB 752/1 medium with penicillin and streptomycin in humidified 95% O2/5% CO2 at 37° C. […] The explant cells were then harvested and the cells dissociated using a solution of collagenase, trypsin and DNase. The mixed cell suspension was subjected to three differential adhesions to remove fibroblasts. The non-adherent suspension containing an enriched population of fetal type II cells was plated at 2×10^6 cells/35 mm dish in 2 ml of minimum essential medium containing penicillin (100 U/ml), kanamycin ([…]) and 2% fetal bovine serum. The cells were cultured for 20-22 h at 37° C. in […] (Bhandari et al., Pediatr. Res. 41:166-71, 1997). Cultures contain 90-95% type II cells of which >99% are viable as determined by exclusion of the vital dye, trypan blue. The usual yield of type II cells from the lungs of the fetuses (10-16) per pregnant rat is approximately 10^7 cells.
Type II cells from d19 fetal lungs were cultured for 24 h and then exposed to either 1 or 10 ng/ml leptin for 24 h. Total RNA was isolated from these cells and then examined for SP-A, SP-B, SP-C, and GAPDH (housekeeping gene) mRNA expression.

The test system of test [2] is SP-B (surfactant protein-B). The experiment in a line: Western blot of SP-B in 21-day gestation fetal rat lung explants cultured with leptin. In kind it is cell-based. Conditions: d21 explants. As for the experimental part:
FIG. 1 is a Western blot analysis of SP-B (surfactant protein-B) from 21-day gestation, fetal rat lung explants cultured in the presence or absence of leptin. Fetal lung explants were exposed to either (A) 1 ng/ml or (B) 10 ng/ml leptin from initiation of culture (day 0). Explants were harvested and protein extracts were prepared on days (d) 1, 2, and 3 of culture. Western blots were probed with an antibody specific to rat SP-B.
We have used a fetal lung explant model to mimic the conditions of the premature lung. Lungs from d21 rat fetuses, term being 22 days, were dissected free of heart, trachea and bronchi and placed in ice-cold serum free Waymouth medium and cut into 1 mm^3 pieces on a McIlwain tissue chopper. The lung explants were placed in tissue culture dishes that were scratched (along each half) to facilitate attachment of explants. The excess medium was aspirated and fresh medium (2 ml for 60 mm plate) was gently placed on the explants. The 17-21 d explants were incubated in 95% O2-5% CO2, since incubation of these explants in 5% CO2 in air can cause compression of airways (Gross and Wilson, J. Appl. Physiol. 55: 1725-32, 1983). The petri dishes were placed on a tilting platform and allowed to rest for 90 min in a humidified atmosphere in a CO2 incubator. Thereafter, the plates were tilted at 34 cycles per minute so that during each cycle, one half of the petri dish was exposed to gas phase and the other half was covered with the medium. Leptin at either 1 or 10 ng/ml was added to the explant cultures on the day of establishment of the culture (day 0). The explants were cultured for varying periods of time for up to 3 days, and protein extracts were prepared to establish a time course for leptin effects on the fetal lung. Surfactant proteins were separated by electrophoresis on 15% polyacrylamide—SDS gels, and transferred to nitrocellulose membranes by electroblotting. The membranes were blocked with 2% gelatin (BioRad), treated overnight with anti-SP-B, and then with secondary antibody (goat anti-rabbit HRP-conjugated antibody). […]

A further test has as its system type II alveolar cells. The experiment in a line: Histologic analysis of fetal lung after antenatal treatment (alkaline phosphatase staining). Conditions: antenatal treatment for 48 h, alkaline phosphatase staining (FIG. 6). In kind it is in vivo, rat. The protocol: FIG. 6 depicts the effect of antenatal treatment with leptin or dexamethasone on fetal lung morphology. Fetal lung sections were stained with a histochemical stain for alkaline phosphatase, which identifies type II cells. Control, no leptin; dexamethasone (6 mg/ml for 48 h); leptin (0.25 mg/ml for 48 h).
Histologic analysis of the lung tissue was done to determine the basis for the increased fetal lung weight. Type II cells were identified by alkaline phosphatase staining as previously described (Post and Smith, Am. Rev. Respir. Dis. 137: 525-30, 1988). Unfixed frozen 5 μm sections of fetal lung tissue were stained histochemically with alkaline phosphatase at pH 8.74 to identify type II alveolar cells. Slides were incubated for 60 minutes at 37° C. in 25 ml of 0.2M Tris-HCl buffer and 25 ml of deionized water, 5 mg of Naphthol AS-BI phosphate, 0.1 ml dimethylformamide, and 30 mg of fast red TR. The slides were then rinsed in 3 changes of deionized water, counterstained for 30 seconds in Harris hematoxylin and blued in running water for 3-5 minutes. Slides were mounted from water in Advantage™.

Test [3] concerns leptin receptor OB-Rb mRNA. The experiment in a line: RT-PCR of leptin receptor expression in day 17 fetal lung explant cultures. In kind it is cell-based, rat. The following applies: d17 fetal lung explants, 3 days; 1 ng/ml leptin or 10 nM dexamethasone. The protocol:
FIG. 4 depicts RT-PCR analysis of leptin receptor expression in day 17 fetal lung explant cultures. Total RNA was reverse transcribed and amplified with either the short (OB-Ra) or the long (OB-Rb) form of the leptin receptor. Day 0 (Cd0) represents the time of initiation of culture. The fetal lung explants were exposed for 3 days to either control medium (Cd3), 1 ng/ml leptin (Ld3), or 10 nM dexamethasone (Dexd3). The size of the OB-Ra RT/PCR product is 479 bp and OB-Rb is 262 bp.
To explore the effect of gestational age on surfactant production in response to leptin, we exposed younger lung explant cultures (d17) to 1 ng/ml leptin. Total RNA was extracted by homogenizing the explants in 4M guanidine thiocyanate, applying the lysate on a Qiagen RNeasy column (Qiagen, Chatsworth, Calif.), and recovering total RNA according to the manufacturer's instructions. RNA was quantified by measurement of absorbancy at 260 nm (A260). The quality of RNA was assessed by the A260/A280 ratio and by separation on agarose gels. Total RNA (1 μg) was brought up to 10 μl in DEPC-treated water. […]

Another test concerns ob/ob mice. Conditions: cited from earlier work.
The test system of a further test is SP-A, SP-B, SP-C mRNA. As to the kind of experiment: RT-PCR of surfactant protein mRNA in day 17 fetal lung explant cultures. The format is cell-based, rat. Conditions: 1 ng/ml leptin. The protocol: Cultures were exposed to 1 ng/ml leptin (lanes 3, A-C) or control medium (lanes 2, A-C), and total RNA was isolated at the indicated day of culture. Total RNA was reverse transcribed and amplified with both β-actin and […] PCR primers. In each figure, lane 1 is the time of initiation of culture (day 0). Low levels of all surfactant RNAs were detected in the uncultured cells (lanes 1, A-C). The size of the β-actin RT/PCR product is 492 bp; the size of SP-A is 352 bp; SP-B is 201 bp, and SP-C is 284 bp.
Qualitative RT/PCR detection of surfactant mRNA was performed using the Ambion QuantumRNA kit (Ambion, Austin, Tex.) and 1 μg of total RNA isolated from explants cultured for 3 days in culture. Lanes 1, 3,5: control day 3; lanes 2, 4, 6: 1 ng/ml leptin day 3.
To explore the effect of gestational age on surfactant production in response to leptin, we exposed younger lung explant cultures (d17) to 1 ng/ml leptin. Total RNA was extracted by homogenizing the explants in 4M guanidine thiocyanate, applying the lysate on a Qiagen RNeasy column (Qiagen, Chatsworth, Calif.), and recovering total RNA according to the manufacturer's instructions. RNA was quantified by measurement of absorbancy at 260 nm (A260). The quality of RNA was assessed by the A260/A280 ratio and by separation on agarose gels. Total RNA (1 μg) was brought up to 10 μl in DEPC-treated water. The sample was heated to 75° C. for 3 min, placed on ice, and cDNA synthesis was performed by reverse transcription for 15 min at 42° C. in a 20 μl reaction containing 1×PCR buffer II (Perkin-Elmer), 5 mM MgCl2, 1.25 mM each dNTP, 1 U/μl RNasin (Promega), 12.5 μg/μl oligo (dT) 15, and 2.5 U/μl AMV reverse transcriptase (Promega Madison, Wis.). Subsequent amplification of the cDNA sequence was performed with 10 μl of the reverse transcription reaction in 1×Taq buffer, 5% DMSO, 25 pmol each primer (Table 1), and 1.25 U Taq polymerase in a 50 μl reaction volume.
For assessment of the relative levels of SP-A, SP-B and SP-C transcripts, a multiplex RT/PCR reaction with β-actin was used. The temperature profile for the PCR reactions consisted of a 2 min melting step at 95° C., then 30 cycles of 30 s at 94° C., 30 s at 55° C., and 60 sec at 65° C., followed by a final extension step of 5 min at 72° C. RT-PCR products were separated by size on a 4% agarose gel and stained with ethidium bromide. Gel visualization and quantitative analysis of relative band intensities was performed using Eagle Eye II hardware and software (Stratagene, La Jolla, Calif.).
However, leptin also increases the levels of P-actin in fetal lung explant cultures. […] Therefore, we chose to use 18S rRNA to determine the relative levels of surfactant mRNA because of the invariant expression of 18S rRNA across tissues and treatments. Since 18S rRNA is much more abundant than any mRNA species, modified 18S rRNA primers called competimers (Ambion) are used that cannot be extended by Taq polymerase. By adjusting the ratio of competimers to normal 18S rRNA primers, the RT/PCR signal for 18S rRNA can be decreased to the level of even rare messages, as described by the manufacturer. […] These experiments support the hypothesis that leptin has an effect on the maturation of type II alveolar cells.

[4] abbreviates: d17 explants, multiplex RT/PCR with β-actin (FIG. 2).
The mark [5] stands for this setting: d17 lung explants, 3 days in culture.

With `C[C@@H]1C[C@H]2[C@@H]3CCC4=CC(=O)C=C[C@]4(C)[C@@]3(F)[C@@H](O)C[C@]2(C)[C@@]1(O)C(=O)CO` [Dexamethasone, dexamethasone, reference compound], in the test with pregnant rats, the “Weight fetal lung (g)/g fetus” value was 0.52 g/g fetus, the “Average weight fetal lungs” value was 0.79 (n = 9) g and the “increase of average fetal lung weight in relation to body weight” value came to 41%.
For the compound leptin, the neovascularization in cornea entry in the test with cornea from normal rats is recorded as “induces neovascularization”. In addition, in test [1], the “SP-A mRNA levels” value is given as “increased”, the “SP-B mRNA levels” value is recorded as “increased” and the “SP-C mRNA levels” value was “increased”. Besides, the SP-B production result in test [2] (1 ng/ml leptin, 48 or 72 h exposure, vs control cultures) is reported as “increases SP-B production above that of the control cultures”. Also, the SP-B levels entry in test [2] (10 ng/ml leptin, 48 and 72 h) was “decreases SP-B levels”. The SP-B production entry in test [2] (10 ng/ml leptin, 24 h) is reported as “increases SP-B production”. Besides, the “number of type II alveolar cells in fetal lung” value in the test on type II alveolar cells is recorded as “increase in the number of type II alveolar cells”. Besides, the “OB-Rb mRNA levels” value in test [3] is listed as “decreases”. For the same compound, in the test with pregnant rats, the “Weight fetal lung (g)/g fetus” value is recorded as 0.56 g/g fetus, the “Average weight fetal lungs” value is on record as 0.87 (n = 9) g and the “increase of average fetal lung weight in relation to body weight” value is 51%. Also, in the test on ob/ob mice (O'Donnell et al. 1999), the respiratory depression result is “prevent respiratory depression”. Moreover, in the test with ob/ob mice (Tankersley et al. 1998), the “volume-dependent decrease in lung compliance” value is “ameliorated”. In the test with SP-A, SP-B, SP-C mRNA (setting [4]), the “SP-A mRNA levels” value is listed as “significantly increases” and the “SP-C mRNA levels” value is “significantly increases”. Further, in the test on SP-A, SP-B, SP-C mRNA (setting [5]), the “SP-A mRNA level relative to 18S rRNA, increase” value came to 1.6 fold; the “SP-B mRNA level relative to 18S rRNA, increase” value was 5 fold; the “SP-C mRNA level relative to 18S rRNA, increase” value turned out to be 2 fold. Besides, in the test on SP-A, SP-B, SP-C mRNA (fetal lung explant cultures (FIG. 2)), the “levels of β-actin” value is given as “increases”.
